Test results taken from US20090023810A1, “METHODS OF TRANSLATION AND/OR INFLAMMATION BLOCKADE” (priority 2007, published 2009).

Tested on: MEF cells
Type: cell-based
Details: SA 400 μM 30 minutes; 15d-PGJ2 50 μM 1 hour, FIG. 2C
Method: Furthermore, the wild-type and eIF2α A/A mutant MEF cells were treated with 400 μM of SA for 30 minutes or 50 μM of 15d-dPJ2 for 1 hour.
The prion-like activity of TIA-1 has been reported to function in SG formation (Gilks et al., 2004). […] The wild-type, TIA-1 KO, and TIAR KO MEF cells were mock-treated (upper panel) or treated with 15d-PGJ2 (lower panel).

## CCCCC/C=C/C=C1/C(=O)C=C[C@@H]1C/C=C\CCCC(=O)O [15d-PGJ2, 15-deoxy-delta 12,14-prostaglandin J2]
  SG formation in eIF2α A/A (S51A knock-in) mutant MEF cells: induced SG formation
